US20060025485A1, “Hydroxybenazamide compounds for treatment of cancer” (priority 2004, published 2006)

Assays:
[1] = test system: c-Raf as well as MEK and ERK; conditions: human monocytic THP-1 cells; cited from earlier work
[2] = test system: Chromogranin A; experiment: Western analysis of chromogranin A, BON-raf cells treated with estradiol; assay type: cell-based, human
Procedure: Usually, carcinoid tumors secrete high levels of both chromogranin A and serotonin due to disregulated hormone production. Similarly, BON cells treated with control or estradiol, and BON-raf cells treated with control had high levels of the NE marker chromogranin A as determined by Western analysis. […] In addition, BON and BON-raf cells were tested for serotonin secretion by ELISA after treatment with control or estradiol.
Cell culture. Human pulmonary carcinoid cells (NCI-H727) were obtained from American Type Culture Collection (Manassas, Va.) and human pancreatic carcinoid tumor cells, BON a generous gift of Drs. Evers and Townsend (Parekh et al., 1994), were maintained in RPMI 1640 and D-MEM-F12 media (Life Technologies, Rockville, Md.) respectively supplemented with 10% Fetal Bovine Serum (Sigma, St. Louis, Mo.), 100 IU/ml penicillin and 100 μg/ml streptomycin (Life Technologies) in a humidified atmosphere of 5% CO2 in air at 37° C. The maintenance of BON-raf cells and the activation of Raf-1 were followed as described previously (Sippel et al., 2003; Sippel and Chen, 2002; McMahon, 2001).
Western blot analysis. Cellular extracts were prepared and quantified by BCA protein assay kit (Pierce, Rockford, Ill.) as previously described (Sippel et al., 2003). 30-50 μg of denatured proteins from each sample underwent electrophoresis on a SDS-polyacrylamide gel and transferred to a nitrocellulose membranes (Schleicher and Schuell, Keene, N.H.). Membranes were blocked for 1 hr in milk solution (1×PBS, 5% non-fat dry milk, 0.05% Tween-20) and then incubated at 4° C. overnight with primary antibodies. The following primary antibody dilutions were used: phospho-ERK 1/2 (1:1,000); phospho-MEK (1:1,000); phospho-Raf-1 (Serine338) (1:1,000); p21 and p18, (1:1,000); (Cell Signal Technology, Beverly, Mass.), Chromogranin A (1:2,000; Zymed Laboratories, San Francisco, Calif.); MASH-1 (1:1000, BD Pharmingen) and G3PDH (1:10,000; Trevigen, Gaithersburg, Md.). After primary antibody incubation, membranes were washed 3×5 min in PBS-T wash buffer (1×PBS, 0.05% Tween 20). […]

[3] = in vitro; conditions: human, BON cells
Procedure: (§1) Cells tested (H727 and BON) were harvested by trypsinization and plated at a cell density of 3,000 cells/well of each microtiter plate. Cells were grown for 4 hrs at 37° C., with 5% CO2 in a humidified incubator to allow cell attachment to occur before compound addition. […] 10 μl of each compound stock was added to duplicate microtiter plates for each cell line. The final concentration of DMSO in all wells was 1%. To test 200 μM, 2% DMSO was added to each well. Data was compared to the effect of 2% DMSO. All compounds were tested in duplicate. Cells were incubated with the test compounds for 72 hrs before reading the assay. Then processing and calculation were performed according to manufacturer's directions for Cell Titer Glo Assay (Promega, Madison, Wis.).

[4] = in vitro; conditions: human, H727 cells
Procedure: as §1

COc1nccc(-c2c(-c3ccc(F)cc3)ncn2C2CCC(O)CC2)n1 (stereo not drawn) [SB239063]
activation of c-Raf, MEK and ERK [1]: activates c-Raf as well as MEK and ERK

C[C@]12CC[C@@H]3c4ccc(O)cc4CC[C@H]3[C@@H]1CC[C@@H]2O [Estradiol]
reduction of chromogranin A levels ([2]; 2 days): 31% | reduction of chromogranin A levels ([2]; 4 days): 68% | reduction of chromogranin A levels ([2]; 6 days): 50%

COc1cccc2c1C(=O)c1c(O)c3c(c(O)c1C2=O)C[C@@](O)(C(=O)CO)C[C@@H]3O[C@H]1C[C@H](N)[C@H](O)[C@H](C)O1 [Doxorubicin]
IC50 at 72 h [3]: 1400 nM | IC50 at 72 h [4]: 1100 nM
